Tested on: MV-4-11 cells
Assay: Gene expression microarray analysis (Affymetrix PrimeView) and GSEA
Assay type: cell-based, human
Parameters: RFU PODN (11730768_x_at) / Fold change /veh PODN (11730768_x_at) / RFU LINC00158 (11744669_a_at) / Fold change /veh LINC00158 (11744669_a_at) / RFU DUSP10 (11751237_a_at) / Fold change /veh DUSP10 (11751237_a_at) / RFU ID3 (11757404_x_at) / Fold change /veh ID3 (11757404_x_at) / RFU PLEKHG5 (11737974_s_at) / Fold change /veh PLEKHG5 (11737974_s_at) / RFU LRRC4B (11730491_at) / Fold change /veh LRRC4B (11730491_at) / RFU GIMAP4 (11747438_a_at) / Fold change /veh GIMAP4 (11747438_a_at) / RFU KRT8 (11758183_x_at) / Fold change /veh KRT8 (11758183_x_at) / RFU CNN1 (11734310_a_at) / Fold change /veh CNN1 (11734310_a_at) / RFU VPS37D (11726825_at) / Fold change /veh VPS37D (11726825_at) / RFU C10orf10 (11716522_x_at) / Fold change /veh C10orf10 (11716522_x_at) / RFU KIR2DL2 /// KIR2DL4 /// KIR2DL5A /// KIR2DL5B /// KIR2DS1 /// KIR2DS2 /// KIR2DS3 /// KIR2DS4 /// KIR3DL3 /// KIR3DL3 /// KIR3DS1 (11738374_at) / Fold change /veh KIR2DL2 /// KIR2DL4 /// KIR2DL5A /// KIR2DL5B /// KIR2DS1 /// KIR2DS2 /// KIR2DS3 /// KIR2DS4 /// KIR3DL3 /// KIR3DL3 /// KIR3DS1 (11738374_at) / RFU C1QL1 (11718748_at) / Fold change /veh C1QL1 (11718748_at) / RFU TMPRSS4 (11747572_a_at) / Fold change /veh TMPRSS4 (11747572_a_at) / RFU HAMP (11756126_x_at) / Fold change /veh HAMP (11756126_x_at) / RFU RNFT2 (11725882_a_at) / Fold change /veh RNFT2 (11725882_a_at) / RFU NR4A2 (11747474_a_at) / Fold change /veh NR4A2 (11747474_a_at) / RFU ABCC12 (11746883_a_at) / Fold change /veh ABCC12 (11746883_a_at) / RFU TMEM136 (11760407_x_at) / Fold change /veh TMEM136 (11760407_x_at) / RFU CLDN22 /// WWC2 (11732394_at) / Fold change /veh CLDN22 /// WWC2 (11732394_at) / RFU HLA-DPB1 (11760878_x_at) / Fold change /veh HLA-DPB1 (11760878_x_at) / RFU SPINT1 (11716480_a_at) / Fold change /veh SPINT1 (11716480_a_at) / RFU GAP43 (11754022_s_at) / Fold change /veh GAP43 (11754022_s_at) / RFU A4GNT (11735810_at) / Fold change /veh A4GNT (11735810_at) / RFU PRB3 (11715151_x_at) / Fold change /veh PRB3 (11715151_x_at) / RFU TUBB4B (11761932_at) / Fold change /veh TUBB4B (11761932_at) / RFU CAPN14 (11732068_a_at) / Fold change /veh CAPN14 (11732068_a_at) / RFU TMCC2 (11721928_a_at) / Fold change /veh TMCC2 (11721928_a_at) / RFU IRGQ (11745062_a_at) / Fold change /veh IRGQ (11745062_a_at) / RFU FAM174B (11720279_a_at) / Fold change /veh FAM174B (11720279_a_at) / RFU TMPRSS4 (11748680_a_at) / Fold change /veh TMPRSS4 (11748680_a_at) / RFU FAM212B (11763350_a_at) / Fold change /veh FAM212B (11763350_a_at) / RFU PLEKHG5 (11743358_a_at) / Fold change /veh PLEKHG5 (11743358_a_at) / RFU ZSCAN30 (11745921_a_at) / Fold change /veh ZSCAN30 (11745921_a_at) / RFU CMKLR1 (11741424_a_at) / Fold change /veh CMKLR1 (11741424_a_at) / RFU LOC101060620 /// MAPK8IP1 (11723275_at) / Fold change /veh LOC101060620 /// MAPK8IP1 (11723275_at) / RFU SPTSSB (11747773_x_at) / Fold change /veh SPTSSB (11747773_x_at) / RFU PRSS12 (11739890_at) / Fold change /veh PRSS12 (11739890_at) / RFU BIN1 (11741810_x_at) / Fold change /veh BIN1 (11741810_x_at) / RFU WNT11 (11732464_a_at) / Fold change /veh WNT11 (11732464_a_at) / RFU C10orf10 (11716521_a_at) / Fold change /veh C10orf10 (11716521_a_at) / RFU C5orf56 (11738089_at) / Fold change /veh C5orf56 (11738089_at) / RFU CYB561 (11721691_x_at) / Fold change /veh CYB561 (11721691_x_at) / RFU ANKRD19P (11752326_a_at) / Fold change /veh ANKRD19P (11752326_a_at) / RFU OR2T12 /// OR2T33 /// OR2T8 (11738714_s_at) / Fold change /veh OR2T12 /// OR2T33 /// OR2T8 (11738714_s_at) / RFU VCAN (11748164_a_at) / Fold change /veh VCAN (11748164_a_at) / RFU JSRP1 (11732532_at) / Fold change /veh JSRP1 (11732532_at) / RFU KRTAP10-11 (11738290_x_at) / Fold change /veh KRTAP10-11 (11738290_x_at) / RFU MYO3A (11730013_a_at) / Fold change /veh MYO3A (11730013_a_at) / RFU EBF3 (11725865_a_at) / Fold change /veh EBF3 (11725865_a_at) / RFU CAMK2N1 (11719241_x_at) / Fold change /veh CAMK2N1 (11719241_x_at) / RFU C5orf56 (11738088_a_at) / Fold change /veh C5orf56 (11738088_a_at) / RFU OLFML3 (11715873_a_at) / Fold change /veh OLFML3 (11715873_a_at) / RFU LOC100653217 /// NTM (11731650_a_at) / Fold change /veh LOC100653217 /// NTM (11731650_a_at) / RFU MAPK11 (11762145_a_at) / Fold change /veh MAPK11 (11762145_a_at) / RFU FIZ1 (11724087_x_at) / Fold change /veh FIZ1 (11724087_x_at) / RFU OASL (11726364_x_at) / Fold change /veh OASL (11726364_x_at) / RFU SOX15 (11748057_x_at) / Fold change /veh SOX15 (11748057_x_at) / RFU CD79A (11719716_a_at) / Fold change /veh CD79A (11719716_a_at) / RFU HIST1H1D (11736915_at) / Fold change /veh HIST1H1D (11736915_at) / RFU CASKIN2 (11723855_a_at) / Fold change /veh CASKIN2 (11723855_a_at) / RFU LOC730098 (11760151_x_at) / Fold change /veh LOC730098 (11760151_x_at) / RFU OR4N2 (11742367_at) / Fold change /veh OR4N2 (11742367_at) / RFU PRRT2 (11749266_a_at) / Fold change /veh PRRT2 (11749266_a_at) / RFU SNX32 (11753110_a_at) / Fold change /veh SNX32 (11753110_a_at) / RFU CDHR5 (11726645_a_at) / Fold change /veh CDHR5 (11726645_a_at) / RFU RCAN1 (11760418_a_at) / Fold change /veh RCAN1 (11760418_a_at) / RFU FAM167A (11723789_a_at) / Fold change /veh FAM167A (11723789_a_at) / RFU FAM26E (11764081_at) / Fold change /veh FAM26E (11764081_at) / RFU ISYNA1 (11749810_s_at) / Fold change /veh ISYNA1 (11749810_s_at) / RFU ACY1 (11761880_at) / Fold change /veh ACY1 (11761880_at) / RFU 11764098_at / Fold change /veh 11764098_at / RFU SAMD14 (11745864_x_at) / Fold change /veh SAMD14 (11745864_x_at) / RFU NPB (11741838_a_at) / Fold change /veh NPB (11741838_a_at) / RFU TMPRSS6 (11731388_a_at) / Fold change /veh TMPRSS6 (11731388_a_at) / RFU KRTAP10-2 (11738614_at) / Fold change /veh KRTAP10-2 (11738614_at) / RFU ARHGAP8 /// PRR5-ARHGAP8 (11727945_x_at) / Fold change /veh ARHGAP8 /// PRR5-ARHGAP8 (11727945_x_at) / RFU KRTAP5-7 /// NADSYN1 (11734609_at) / Fold change /veh KRTAP5-7 /// NADSYN1 (11734609_at) / RFU RASL12 (11751679_a_at) / Fold change /veh RASL12 (11751679_a_at) / RFU CDKN2B (11736163_a_at) / Fold change /veh CDKN2B (11736163_a_at) / RFU PRF1 (11729649_at) / Fold change /veh PRF1 (11729649_at) / RFU, ZNF638 /// ZNF638-IT1 / Fold change vs veh, ZNF638 /// ZNF638-IT1 / RFU, PANK3 / Fold change vs veh, PANK3 / RFU, SH3YL1 / Fold change vs veh, SH3YL1 / RFU, ZEB2 / Fold change vs veh, ZEB2 / RFU, NRIP1 / Fold change vs veh, NRIP1 / RFU, PTTG1IP / Fold change vs veh, PTTG1IP / RFU, CAPN2 / Fold change vs veh, CAPN2 / RFU, MED14 / Fold change vs veh, MED14 / RFU, SNORA58 / Fold change vs veh, SNORA58 / RFU, C1orf63 / Fold change vs veh, C1orf63 / RFU, LRRFIP1 / Fold change vs veh, LRRFIP1 / RFU, NDUFAF7 / Fold change vs veh, NDUFAF7 / RFU, SLC12A2 / Fold change vs veh, SLC12A2 / RFU, IBTK / Fold change vs veh, IBTK / RFU, ESF1 / Fold change vs veh, ESF1 / Fold change vs veh, TMEM50B / RFU, TAOK1 / Fold change vs veh, TAOK1 / RFU, ACBD3 / Fold change vs veh, ACBD3 / RFU, TMA16 / Fold change vs veh, TMA16 / RFU, RWDD3 / Fold change vs veh, RWDD3 / RFU, BCAT1 / Fold change vs veh, BCAT1 / RFU, EDEM3 / Fold change vs veh, EDEM3 / RFU, TMEM33 / Fold change vs veh, TMEM33 / RFU, WDR75 / Fold change vs veh, WDR75 / RFU, AHCTF1 / Fold change vs veh, AHCTF1 / RFU, TFRC / Fold change vs veh, TFRC / RFU, ZDHHC17 / Fold change vs veh, ZDHHC17 / RFU, NOM1 / Fold change vs veh, NOM1 / RFU, ARL8B / Fold change vs veh, ARL8B / RFU, ZBTB11 / Fold change vs veh, ZBTB11 / RFU, TAMM41 / Fold change vs veh, TAMM41 / RFU, KIAA1704 /// LOC100996395 / Fold change vs veh, KIAA1704 /// LOC100996395 / RFU, ING1 / Fold change vs veh, ING1 / RFU, TRMT61B / Fold change vs veh, TRMT61B / RFU, FUBP3 / Fold change vs veh, FUBP3 / RFU, TP53 / Fold change vs veh, TP53 / RFU, TNKS2 / Fold change vs veh, TNKS2 / RFU, ZFP14 / Fold change vs veh, ZFP14 / RFU, ACTR2 / Fold change vs veh, ACTR2 / RFU, PPP3R1 / Fold change vs veh, PPP3R1 / RFU, PIK3R1 / Fold change vs veh, PIK3R1 / RFU, HNRNPA1 / Fold change vs veh, HNRNPA1 / RFU, RNF170 / Fold change vs veh, RNF170 / RFU, ZNF28 / Fold change vs veh, ZNF28 / RFU, RNGTT / Fold change vs veh, RNGTT / RFU, OGT / Fold change vs veh, OGT / RFU, BRD1 / Fold change vs veh, BRD1 / RFU, MARS / Fold change vs veh, MARS / RFU, ZNF655 / Fold change vs veh, ZNF655 / RFU, FAHD1 / Fold change vs veh, FAHD1 / RFU, BDP1 / Fold change vs veh, BDP1 / RFU, LRRCC1 / Fold change vs veh, LRRCC1 / RFU, ARID1A / Fold change vs veh, ARID1A / RFU, ZNF146 / Fold change vs veh, ZNF146 / RFU, ZNF330 / Fold change vs veh, ZNF330 / RFU, GPN3 / Fold change vs veh, GPN3 / RFU, C9orf123 / Fold change vs veh, C9orf123 / RFU, N4BP2L2 / Fold change vs veh, N4BP2L2 / RFU, ARFIP1 / Fold change vs veh, ARFIP1 / RFU, FAM179B / Fold change vs veh, FAM179B / RFU, BCL10 / Fold change vs veh, BCL10 / RFU, UHRF1BP1L / Fold change vs veh, UHRF1BP1L / RFU, BET1 / Fold change vs veh, BET1 / RFU, CNOT2 / Fold change vs veh, CNOT2 / RFU, ZNF268 / Fold change vs veh, ZNF268 / Fold change vs veh, ZNF507 / RFU, DGCR2 / Fold change vs veh, DGCR2 / RFU, WDSUB1 / Fold change vs veh, WDSUB1 / Fold change vs veh, HSP90B1 /// MIR3652 / RFU, ADSS / Fold change vs veh, ADSS / RFU, GK / Fold change vs veh, GK / RFU, ZNF148 / Fold change vs veh, ZNF148 / RFU, TAF9 / Fold change vs veh, TAF9 / RFU, SLC1A5 / Fold change vs veh, SLC1A5 / RFU, SLMO2 / Fold change vs veh, SLMO2 / RFU, ABCC4 / Fold change vs veh, ABCC4 / RFU, LOC101060439 /// RAP1B / Fold change vs veh, LOC101060439 /// RAP1B / RFU, RFX7 / Fold change vs veh, RFX7 / RFU, GTPBP10 / Fold change vs veh, GTPBP10 / RFU, CNEP1R1 / Fold change vs veh, CNEP1R1 / RFU, BIVM-ERCC5 /// ERCC5 / Fold change vs veh, BIVM-ERCC5 /// ERCC5 / RFU, ILF3 / Fold change vs veh, ILF3 / RFU 11762660_at / Fold change /veh 11762660_at / RFU VCAN (11757783_s_at) / Fold change /veh VCAN (11757783_s_at) / RFU DDX43 (11728927_at) / Fold change /veh DDX43 (11728927_at) / RFU KRT8 (11758188_x_at) / Fold change /veh KRT8 (11758188_x_at) / RFU NKD1 (11759106_at) / Fold change /veh NKD1 (11759106_at) / RFU SRD5A1 (11742802_a_at) / Fold change /veh SRD5A1 (11742802_a_at) / RFU TPSAB1 /// TPSB2 (11721975_s_at) / Fold change /veh TPSAB1 /// TPSB2 (11721975_s_at) / RFU GSTM3 (11746129_a_at) / Fold change /veh GSTM3 (11746129_a_at) / RFU IL23R (11737362_x_at) / Fold change /veh IL23R (11737362_x_at) / RFU TMEM51 (11727254_a_at) / Fold change /veh TMEM51 (11727254_a_at) / RFU PIWIL2 (11732686_x_at) / Fold change /veh PIWIL2 (11732686_x_at) / RFU ORM1 (11744905_x_at) / Fold change /veh ORM1 (11744905_x_at) / RFU CCDC152 (11743942_at) / Fold change /veh CCDC152 (11743942_at) / RFU ECM1 (11717891_a_at) / Fold change /veh ECM1 (11717891_a_at) / RFU IL23R (11748794_a_at) / Fold change /veh IL23R (11748794_a_at) / RFU TNFAIP8L3 (11732012_x_at) / Fold change /veh TNFAIP8L3 (11732012_x_at) / RFU MBOAT4 (11741988_at) / Fold change /veh MBOAT4 (11741988_at) / RFU 11764193_at / Fold change /veh 11764193_at / RFU TMEM53 (11763286_at) / Fold change /veh TMEM53 (11763286_at) / RFU MAGEB2 (11727129_at) / Fold change /veh MAGEB2 (11727129_at) / RFU TMEM200A (11744735_a_at) / Fold change /veh TMEM200A (11744735_a_at) / RFU CCDC152 (11751479_a_at) / Fold change /veh CCDC152 (11751479_a_at) / RFU FAM211A (11726209_a_at) / Fold change /veh FAM211A (11726209_a_at) / RFU RGS16 (11746705_a_at) / Fold change /veh RGS16 (11746705_a_at) / RFU VCAN (11755009_s_at) / Fold change /veh VCAN (11755009_s_at) / RFU RHOB (11743442_s_at) / Fold change /veh RHOB (11743442_s_at) / RFU RGS16 (11720943_a_at) / Fold change /veh RGS16 (11720943_a_at) / RFU RGS16 (11720944_at) / Fold change /veh RGS16 (11720944_at) / RFU, VPS4B / Fold change vs veh, VPS4B / RFU, CREB1 / Fold change vs veh, CREB1 / RFU, DNAJC13 / Fold change vs veh, DNAJC13 / RFU, GNAQ / Fold change vs veh, GNAQ / RFU, CDK5R1 / Fold change vs veh, CDK5R1 / RFU, ZRANB3 / Fold change vs veh, ZRANB3 / RFU, CUL4A / Fold change vs veh, CUL4A / RFU, CCNY / Fold change vs veh, CCNY / RFU, UFL1 / Fold change vs veh, UFL1 / RFU, COG3 / Fold change vs veh, COG3 / RFU, DIAPH2 / Fold change vs veh, DIAPH2 / RFU, SKA2 / Fold change vs veh, SKA2 / RFU, AFF3 / Fold change vs veh, AFF3 / RFU, LMF1 / Fold change vs veh, LMF1 / RFU, IPO11 / Fold change vs veh, IPO11 / RFU, DFFB / Fold change vs veh, DFFB / RFU, FOXP1 / Fold change vs veh, FOXP1 / RFU, CARD8 / Fold change vs veh, CARD8 / RFU, STRN3 / Fold change vs veh, STRN3 / RFU, ADK / Fold change vs veh, ADK / RFU, RASSF2 / Fold change vs veh, RASSF2 / RFU, WIPF1 / Fold change vs veh, WIPF1 / RFU, LARP1B / Fold change vs veh, LARP1B / RFU, RASA1 / Fold change vs veh, RASA1 / RFU, RB1 / Fold change vs veh, RB1 / RFU, PPFIA1 / Fold change vs veh, PPFIA1 / RFU, MAT2A / Fold change vs veh, MAT2A / RFU, CCT5 / Fold change vs veh, CCT5 / RFU, WDR92 / Fold change vs veh, WDR92 / RFU, CUX1 / Fold change vs veh, CUX1 / RFU, TTC7A / Fold change vs veh, TTC7A / RFU, TMEM135 / Fold change vs veh, TMEM135 / RFU, DEPTOR / Fold change vs veh, DEPTOR / RFU, CPM / Fold change vs veh, CPM / RFU, DNAJB6 / Fold change vs veh, DNAJB6 / RFU, CACNA2D3 / Fold change vs veh, CACNA2D3 / RFU, DTX4 / Fold change vs veh, DTX4 / RFU, TFCP2 / Fold change vs veh, TFCP2 / RFU, GMCL1 /// GMCL1P1 / Fold change vs veh, GMCL1 /// GMCL1P1 / RFU, AEBP2 / Fold change vs veh, AEBP2 / RFU, SNHG1 /// SNORD22 /// SNORD25 /// SNORD26 /// SNORD27 /// SNORD28 /// SNORD29 /// SNORD31 / Fold change vs veh, SNHG1 /// SNORD22 /// SNORD25 /// SNORD26 /// SNORD27 /// SNORD28 /// SNORD29 /// SNORD31 / Fold change (Aza/veh), C12orf56 (ProbeSet 11735607_a_at) / Fold change (ACY-1035/veh), C12orf56 (ProbeSet 11735607_a_at) / Fold change (Aza/veh), FGFR1OP (ProbeSet 11751329_s_at) / Fold change (ACY-1035/veh), FGFR1OP (ProbeSet 11751329_s_at) / Fold change (Aza/veh), VPS36 (ProbeSet 11739960_a_at) / Fold change (ACY-1035/veh), VPS36 (ProbeSet 11739960_a_at) / RFU SYPL1 (11715823_x_at) / Fold change /veh SYPL1 (11715823_x_at) / RFU IGFBP7 (11715501_s_at) / Fold change /veh IGFBP7 (11715501_s_at) / RFU REEP3 (11722064_at) / Fold change /veh REEP3 (11722064_at) / RFU IGLL1 (11728026_x_at) / Fold change /veh IGLL1 (11728026_x_at): dose or concentration left out as unconfirmed
Settings: MV-4-11 cells, 48 hours

## Nc1ccc(-c2cccs2)cc1NC(=O)c1ccc2c(c1)cc(C1CC1)n2CCN1CCOCC1 [ACY-1035]
  RFU SPINT1 (11716480_a_at): 24.20 RFU

Reference: publication PMC5218480 (PLoS ONE, 2017)
